{
  "source": "patent US9604932B2",
  "about": "(priority 2013, dated 2017)",
  "key": {"[1]": {"tested_on": "pulmonary hypertension of the newborn (PPHN)", "experiment": "Lamb model of pulmonary hypertension of the newborn", "type": "in vivo, newborn lambs", "details": "protocol only; 0.3, 1.0, 3.0 mg/kg/h IV", "procedure": "In this study, a prospective, placebo-controlled, dose-escalation, randomized study is carried out in anesthetized, mechanically-ventilated, and muscle-relaxed newborn lambs wherein pulmonary hypertension of the newborn (PPHN) has been induced by in utero ligation of the ductus arteriosus. This clinically-relevant gold-standard model is characterized by severe PAH that is poorly responsive to inhaled nitric oxide (iNO), thus reflecting the 30-50% of clinical PPHN non-responders to clinical iNO therapy. R-107 (0, 0.3, 1.0, and 3.0 mg/kg/h IV; n=6 per group) is compared to iNO (40 ppm; n=6) over a 6 hour period of observation. Hemodynamic parameters are monitored for response to treatment and post-treatment rebound pulmonary arterial hypertension. The activity of R-107 is related to its plasma concentration, in order to construct a pharmacodynamic profile."}, "[2]": {"experiment": "Plasma pharmacokinetics in pig (release of R-100 from R-107), LCMS", "type": "in vivo", "details": "for concentration at 0.08 h: 0.08 hrs post dose; for concentration at 0.17 h: 0.17 hrs post dose; for concentration at 0.25 h: 0.25 hrs post dose; for concentration at 0.5 h: 0.5 hrs post dose; for concentration at 1 h: 1 hrs post dose; for concentration at -0.08 h: −0.08 hrs post dose", "procedure": "In the following two experiments, the pharmacokinetic of releasing R-100 from R-107, via R-105 that is the reduced form of R-100, was studied in vivo according to the protocol described herein.\n100 μl aliquots plasma obtained from R-107-treated sheep or pig were thawed and 200 μl ice-cold ethanol was added to each 100 μl sample to precipitate protein. Samples were then vortexed, placed on ice for 10 minutes, and then spun down at room temperature for 15 minutes. A first 100 μl supernatant from each spun sample was withdrawn and placed in a labeled HPLC micro vial to which 300 μl MPA (LC mobile phase A) was added, and the vial contents were then mixed and submitted for LCMS analysis (kept at 4° C.). The concentration of R-107 was measured in this sample as was the concentration of R105. A second 100 μl supernatant from each spun sample was added to a labelled HPLC micro vial to which 300 μl MPA and 2 μl of Reducing solution (ascorbic acid, 1.0 mg/ml in water) were added. These vials were vortexed; incubated at 50° C. for 1 hour with gentle shaking; and were then cooled to 4° C. and submitted for LCMS analysis. This sample was analyzed for R105, i.e., reduced form of R-100, and the amount measured thus represents the sum of R-100 and R-105 originally present in the plasma. The concentration of R-100 can be calculated from that of the R-105 in the second sample minus that of R-105 in the first sample. However, the concentrations of R-105 were seen to be low (approximately 10% or less of those of R-100) and so the results reported below as R-100 are not corrected for R-105.\nSets of standards (R-100, R-105 and R-107) were prepared by spiking individually in pig plasma. 100 μl aliquots of these spiked plasma samples, after thawing, were included in the above extraction protocol.\nAnalysis method were carried out with an Agilent HPLC stack, with column eluate directed, via a diverter valve, into the source of an AB Sciex ‘Qstar Elite’ Hybrid TOF, high-resolution mass spectrometer. LC column: Phenomenex Kinetex C18 2.6u 100A, 2.1×50 mm. LC mobile phase A: H2O with 0.02% trifluoroacetic acid (TFA), 0.1% formic acid (HOF); Phase B: acetonitrile (ACN) with 0.02% TFA, 0.1% HOF. Mobile phase flow rate=500 μl/min. Injection size: 8 μl, via Agilent 1100 u-WPS autosampler."}, "[3]": {"tested_on": "contrast-induced nephropathy (CIN)", "experiment": "Rat model of contrast-induced nephropathy", "type": "in vivo, Sprague-Dawley rats", "details": "protocol only; 10, 20, 40 mg/kg/day BID IV", "procedure": "In order to test the efficacy of R-107 in contrast-induced nephropathy (CIN), a single-blinded study of CIN is carried out in Sprague-Dawley rats (n=10 per group) subjected to dehydration, prostaglandin synthetase inhibition, and an IV challenge of contrast media (CM). A sham injury group is compared to treatment of CM-challenged healthy rats with R-107 (10, 20, 40 mg/kg/day in 5% dextrose, BID IV), N-acetylcysteine (NAC, 100 mg/kg/day in 5% dextrose, BID), or vehicle control (hydroxypropyl cyclodextrin, HPCD) initiated 10 min before CM administration and continued for 48 hours. Rats are evaluated at 48 hours for renal function (blood urea nitrogen to creatinine ratio, BUN:creatinine) and parameters reflecting renal injury, including protein release into the blood (NGAL; kidney injury molecule-1, KIM-1), pro-inflammatory transcription factor expression (cytoplasmic IkBa degradation, nuclear p65 translocation), histologic damage (H&E), mitochondrial swelling (electron microscopy), and nuclear damage and DNA repair (PARP activation and nitrosative stress as noted by poly(ADP-ribose) and 3-nitrotyrosine (3-NT) tissue immunoreactivity). […]"}, "[4]": {"details": "IV R-107 diluted in 4 parts of PEG400, 18 mg/kg over 6 minutes, 24 hrs post dose"}, "[5]": {"details": "capsule per os of neat R-107 88 mg/kg, 24 hrs post dose"}, "[6]": {"details": "plasma, IV R-107 diluted in 4 parts of PEG400, 18 mg/kg over 6 minutes"}, "[7]": {"details": "plasma, IV neat R-107 88 mg/kg over 6 minutes"}, "[8]": {"details": "plasma, oral, capsule per os of neat R-107 88 mg/kg"}},
  "data": [
    {"compound": "CC(=O)ON1C(C)(C)CC(CO[N+](=O)[O-])C1(C)C", "note": "(centres unmarked) [R-107, 2,2,5,5-tetramethyl-3-(nitrooxymethyl)pyrrolidin-1-yl acetate]", "values": [
      {"measurement": "Efficacy in lamb model of pulmonary hypertension of the newborn", "setting": "[1]", "result": "Effective"},
      {"measurement": "R-107 in plasma", "setting": "[2]; IV R-107 diluted in 4 parts of PEG400, 18 mg/kg over 6 minutes, 2 hrs post dose", "result": "not detected"},
      {"measurement": "R-107 in plasma", "setting": "[2]; IV R-107 diluted in 4 parts of PEG400, 18 mg/kg over 6 minutes, 4 hrs post dose", "result": "not detected"},
      {"measurement": "R-107 in plasma", "setting": "[2]; IV R-107 diluted in 4 parts of PEG400, 18 mg/kg over 6 minutes, 8 hrs post dose", "result": "not detected"},
      {"measurement": "R-100 in plasma", "setting": "[2]; [4]", "result": "not detected"},
      {"measurement": "R-107 in plasma", "setting": "[2]; [4]", "result": "not detected"},
      {"measurement": "R-107 in plasma", "setting": "[2]; IV neat R-107 88 mg/kg over 6 minutes, 6 hrs post dose", "result": "not detected"},
      {"measurement": "R-107 in plasma", "setting": "[2]; IV neat R-107 88 mg/kg over 6 minutes, 24 hrs post dose", "result": "not detected"},
      {"measurement": "R-107 in plasma", "setting": "[2]; capsule per os of neat R-107 88 mg/kg, 8 hrs post dose", "result": "not detected"},
      {"measurement": "R-100 in plasma", "setting": "[2]; [5]", "result": "not detected"},
      {"measurement": "R-107 in plasma", "setting": "[2]; [5]", "result": "not detected"},
      {"measurement": "concentration at 0.08 h", "setting": "[2]; [6]", "result": 2380, "unit": "ng/mL"},
      {"measurement": "concentration at 0.17 h", "setting": "[2]; [6]", "result": 640, "unit": "ng/mL"},
      {"measurement": "concentration at 0.25 h", "setting": "[2]; [6]", "result": 430, "unit": "ng/mL"},
      {"measurement": "concentration at 0.5 h", "setting": "[2]; [6]", "result": 250, "unit": "ng/mL"},
      {"measurement": "concentration at 1 h", "setting": "[2]; [6]", "result": 220, "unit": "ng/mL"},
      {"measurement": "concentration at -0.08 h", "setting": "[2]; [6]", "result": 0, "unit": "ng/mL"},
      {"measurement": "concentration at 0.08 h", "setting": "[2]; [7]", "result": 5240, "unit": "ng/mL"},
      {"measurement": "concentration at 0.17 h", "setting": "[2]; [7]", "result": 5870, "unit": "ng/mL"},
      {"measurement": "concentration at 0.25 h", "setting": "[2]; [7]", "result": 3430, "unit": "ng/mL"},
      {"measurement": "concentration at 0.5 h", "setting": "[2]; [7]", "result": 1320, "unit": "ng/mL"},
      {"measurement": "concentration at 1 h", "setting": "[2]; [7]", "result": 360, "unit": "ng/mL"},
      {"measurement": "concentration at 2 h", "setting": "[2]; plasma, IV neat R-107 88 mg/kg over 6 minutes, 2 hrs post dose", "result": 260, "unit": "ng/mL"},
      {"measurement": "concentration at -0.08 h", "setting": "[2]; [7]", "result": 0, "unit": "ng/mL"},
      {"measurement": "concentration at 0.08 h", "setting": "[2]; [8]", "result": 1.32, "unit": "ng/mL"},
      {"measurement": "concentration at 0.17 h", "setting": "[2]; [8]", "result": 0.715, "unit": "ng/mL"},
      {"measurement": "concentration at 0.5 h", "setting": "[2]; [8]", "result": 0.345, "unit": "ng/mL"},
      {"measurement": "concentration at 1 h", "setting": "[2]; [8]", "result": 0.11, "unit": "ng/mL"},
      {"measurement": "concentration at 2 h", "setting": "[2]; plasma, oral, capsule per os of neat R-107 88 mg/kg, 2 hrs post dose", "result": 0.222, "unit": "ng/mL"},
      {"measurement": "concentration at 3 h", "setting": "[2]; plasma, oral, capsule per os of neat R-107 88 mg/kg, 3 hrs post dose", "result": 0.11, "unit": "ng/mL"},
      {"measurement": "concentration at 4 h", "setting": "[2]; plasma, oral, capsule per os of neat R-107 88 mg/kg, 4 hrs post dose", "result": 0.122, "unit": "ng/mL"},
      {"measurement": "Efficacy in rat model of contrast-induced nephropathy", "setting": "[3]", "result": "Effective"}
    ]}
  ]
}
